From patent US20250034129A1, “CRYSTALLINE FORMS OF (6S,7S)-6-FLUORO-7-(2-FLUORO-5-METHYLPHENYL)-3-(TETRAHYDRO-2H-PYRAN-4-YL)-5,6,7,8-TETRAHYDROPYRIDO[2,3-d]PYRIMIDINE-2,4(1H,3H)-DIONE” (MYOKARDIA, INC., priority 2023, published 2025) come the findings set out here.

What all share (assay type): physicochemical
Data set [1] in a line: Vapor sorption analysis (TA Instrument VTI-SA+). As for the experimental part:
The vapor sorption experiments for Form B were performed using a TA Instrument VTI-SA+ Vapor Sorption Analyzer. Sample (˜10 mg) was placed in a previously cleaned and tarred platinum pan then loaded into the instrument chamber. Sample was dried at 60° C. until the loss rate of 0.005 wt %/min was obtained for 10 minutes. The sample was then held isothermally at 25° C. while the % RH of the system was stepped between 4, 5, 15, 25, 35, 45, 55, 65, 75, 85, 95, 85, 75, 65, 55, 45, 35, 25, 15, 5, 4% RH. Equilibration criteria was +/−0.01 wt % for 35 min with a maximum equilibration time of 600 min at each step.

Data set [2] in a line: Competitive slurry experiments in ethanol.
A short description of data set [3]: Solid state stability in bio-relevant media. The note with it: pH 1 HCl 0.1 M, pH 3.05 citrate 50 mM, pH 7.4 phosphate 50 mM, Fassif pH 6.5, Fessif pH 5.0, 37° C., 200 rpm. As for the experimental part: Form B was added to bio-relevant media (pH 1 HCl 0.1 M; pH 3.05 citrate 50 mM; pH 7.4 phosphate 50 mM; Fassif pH 6.5; Fessif pH 5.0) and solid state stability in the media was determined. Procedures are described in more detail as follows:
pH 1 HCl 0.1M: […] HCl was diluted to 100 mL with water. pH 1.02
pH 3.05 citrate 50 mM: 82 mL of 0.1 M citric acid and 18 mL of 0.1 M sodium citrate were mixed together. pH=3.07.
pH 7.4 phosphate 50 mM: 50 mL of 0.2 M KH2PO4 and 39.1 mL of 0.2 M NaOH were dissolved and diluted to 200 mL with water. pH 7.39.
Fassif pH 6.5: 23.4 mg of NaOH, 224.7 mg of NaH2PO4·2H2O and 304.3 mg of NaCl were dissolved and diluted to 50 mL with water. 33.6 mg of SIF powder was dissolved in 15 mL of FaSSIF buffer solution. The solution was kept stirring and equilibrated at ambient condition with light protection for 2 hours. pH=6.37.
Fessif pH 5.0: 202.6 mg of NaOH, 432.7 mg of acetic acid, and 591.3 mg of NaCl were dissolved and diluted to 50 mL with water. pH of the solution was 4.99. 168 mg of SIF powder was dissolved in 15 mL of FeSSIF buffer solution. The solution was kept stirring and equilibrated at ambient condition with light protection for 2 hours. pH=4.94.
30-50 mg of Form B was weighed into 12 mL sample vials and then 3 mL of test media was added respectively. The suspensions were kept shaking at 200 rpm under 37° C. for 24 hours. […]

The nature of data set [4]: Stability study of Form B (thermal and humidity treatments; HPLC purity, XRPD form). As for the experimental part:
The stability study of Form B (before milling) was carried out at 80° C. for two weeks and at 40° C./75% RH for one month. Purity was determined by HPLC and stability was determined by XRPD. […] The stability of milled Form B was carried out as well under the same conditions. […] A purity decrease of 0.8% was detected for milled Form B after being treated at 80° C. for […].

A short description of data set [5]: Slurry conversion of Form A in anhydrous ethanol. Particulars: 60° C., 24 hours. As for the experimental part: 3 g of Form A was slurried in 90 mL anhydrous ethanol at 60° C. for 24 hours.

Molecules are shown by their SMILES.

For `Cc1ccc(F)c([C@@H]2Nc3[nH]c(=O)n(C4CCOCC4)c(=O)c3C[C@@H]2F)c1` [Form B, (6S,7S)-6-fluoro-7-(2-fluoro-5-methylphenyl)-3-(tetrahydro-2H-pyran-4-yl)-5,6,7,8-tetrahydropyrido[2,3-d]pyrimidine-2,4(1H,3H)-dione], in data set [1], the “hygroscopicity by vapor sorption analysis” value is “non-hygroscopic”. Moreover, the “weight percent gain as measured by vapor sorption analyzer” value in data set [1] (up to 95% RH, 25° C.) was “less than 0.05%”. Further, in data set [2] (10° C. and 60° C.), the “relative stability versus Form A in competitive slurry” value is listed as “more stable compared to Form A” and the “relative stability versus Form C in competitive slurry” value is “more stable compared to Form C”. Moreover, in data set [2] (22.5° C. and 60° C.), the “relative stability versus Form E in competitive slurry” value is given as “more stable compared to Form E”. In addition, the “overall thermodynamic stability ranking compared to Forms A, C and E” value in data set [2] (temperature ranges covered in the experiments) is recorded as “thermodynamically most stable anhydrous form”. In addition, the “solid form by XRPD after 24 hours in bio-relevant media” value in data set [3] is given as “remained as Form B”. Further, the “purity by HPLC after stability test” value in data set [4] (before milling, 40° C./75% RH for one month) was 99.9%. Moreover, the “purity by HPLC after stability test” value in data set [4] (before milling, 80° C. for two weeks) turned out to be 99.9%. In data set [4] (before milling, 80° C. for two weeks and 40° C./75% RH for one month), the “crystal form by XRPD after stability test” value is recorded as “remained unchanged”. Further, the “crystal form by XRPD after thermal and humidity treatments” value in data set [4] (milled, 40° C./75% RH and 80° C.) is “remains unchanged”. Besides, in data set [4] (milled, 40° C./75% RH for four weeks), the “degradation after stability test” value is “did not show any degradation”. For the same compound, in data set [4] (milled, 80° C. for four weeks), the “purity decrease after stability test” value was 0.8%. Further, in data set [5], the “thermodynamic stability compared to Form A, from conversion of Form A to Form B” value was “superior thermodynamic stability”.
